Measurements reported in ChEMBL document CHEMBL1641599, “Design of novel N-phenylnicotinamides as selective cyclooxygenase-1 inhibitors” (Bioorg Med Chem Lett, 2011).

How the values were obtained:
[1] = target: T1, Prostaglandin G/H synthase 1 (Ovis aries) (UniProt P05979); experiment: Inhibition of ovine COX1 at 100 uM after 5 mins by microplate reader assay
T1 sequence (whole entry): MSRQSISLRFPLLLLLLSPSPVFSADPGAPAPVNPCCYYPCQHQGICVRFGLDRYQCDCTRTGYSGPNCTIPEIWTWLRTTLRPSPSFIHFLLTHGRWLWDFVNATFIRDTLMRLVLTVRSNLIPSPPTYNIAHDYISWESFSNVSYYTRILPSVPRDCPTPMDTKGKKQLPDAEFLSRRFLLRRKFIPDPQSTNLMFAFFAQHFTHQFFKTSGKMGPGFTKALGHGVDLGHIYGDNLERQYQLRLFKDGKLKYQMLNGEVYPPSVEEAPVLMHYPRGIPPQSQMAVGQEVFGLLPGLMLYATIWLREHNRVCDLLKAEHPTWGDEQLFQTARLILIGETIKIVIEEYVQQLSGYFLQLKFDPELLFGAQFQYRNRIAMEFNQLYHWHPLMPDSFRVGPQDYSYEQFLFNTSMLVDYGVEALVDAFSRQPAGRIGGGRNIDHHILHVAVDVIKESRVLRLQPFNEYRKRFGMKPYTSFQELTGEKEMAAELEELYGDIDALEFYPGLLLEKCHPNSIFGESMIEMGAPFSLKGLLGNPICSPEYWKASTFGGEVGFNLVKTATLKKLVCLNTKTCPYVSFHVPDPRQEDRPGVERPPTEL

[2] = target: T2, Prostaglandin G/H synthase 1 (Ovis aries, UniProt P05979); experiment: Inhibition of ovine COX1 after 5 mins by microplate reader assay
T2 sequence (P05979 whole entry): T1 sequence (whole entry)

Row | Compound | inhibition [1] | IC50 [2]
1 | Cc1ccc(NC(=O)c2c[nH]c(=O)c(Cl)c2)cc1 |  | 95 µM
2 | Cc1ccc(NC(=O)c2cnc(O)c(Cl)c2)cc1 | 50% | 
3 | COc1ccc(NC(=O)c2ccc(C)nc2)cc1 | 26% | 
4 | Cc1ccc(NC(=O)c2ccc(C)nc2)cc1 | 10% | 
5 | O=C(Nc1ccc(Cl)cc1)c1cnc(Cl)c(Cl)c1 | 42% | 
6 | COc1ccc(NC(=O)c2cncc(Br)c2)cc1 | 0% | 
7 | Cc1ccc(C(=O)Nc2cc(Cl)cc(Cl)c2)cn1 | 20% | 
8 | O=C(Nc1ccc(Br)cc1)c1ccc(=O)[nH]c1 |  | 30 µM
9 | Cc1ccc(C(=O)Nc2ccc(F)cc2)cn1 | 59% | 70 µM
10 | O=C(Nc1cc(Cl)cc(Cl)c1)c1cnc(O)c(Cl)c1 | 63% | 29 µM
11 | O=C(Nc1ccc(Br)cc1)c1cccnc1O | 47% | 
12 | COc1ccc(NC(=O)c2cccnc2O)cc1 | 42% | 
13 | COc1ccc(NC(=O)c2c[nH]c(=O)c(Cl)c2)cc1 |  | 44 µM
14 | O=C(Nc1ccc(Br)cc1)c1cnc(Cl)c(Cl)c1 | 33% | 
15 | Cc1ccc(NC(=O)c2ccc(Cl)nc2)cc1 | 25% | 
16 | Cc1ccc(NC(=O)c2cnc(Cl)c(Cl)c2)cc1 | 37% | 
17 | O=C(Nc1ccc(Br)cc1)c1cncc(Br)c1 | 5% | 
18 | O=C(Nc1ccc(F)cc1)c1cnc(O)c(Cl)c1 | 90% | 
19 | COc1ccc(NC(=O)c2ccc(Cl)nc2)cc1 | 38% | 
20 | O=C(Nc1ccc(Cl)cc1)c1cnc(O)c(Cl)c1 | 84% | 
21 | O=C(Nc1ccc(Cl)cc1)c1ccc(Cl)nc1 | 42% | 
22 | O=C(Nc1ccc(Cl)cc1)c1ccc(O)nc1 | 75% | 9.2 µM
23 | Cc1ccc(NC(=O)c2cccnc2O)cc1 | 28% | 
24 | O=C(Nc1ccc(Cl)cc1Cl)c1cnc(O)c(Cl)c1 | 72% | 16 µM
25 | O=C(Nc1ccc(F)cc1)c1ccc(Cl)nc1 | 41% | 
26 | O=C(Nc1ccc(Cl)cc1)c1c[nH]c(=O)c(Cl)c1 |  | 2.7 µM
27 | O=C(Nc1cc(Cl)cc(Cl)c1)c1cnc(Cl)c(Cl)c1 | 34% | 
28 | O=C(Nc1ccc(F)cc1)c1ccc[nH]c1=O |  | 32 µM
29 | O=C(Nc1ccc(F)cc1)c1c[nH]c(=O)c(Cl)c1 |  | 0.68 µM

Next, values leading:

Row | inhibition [1] | IC50 [2] | Compound
30 | 78% | 3.5 µM | O=C(Nc1ccc(F)cc1)c1ccc(O)nc1
31 | 38% |  | Cc1ccc(C(=O)Nc2ccc(Cl)cc2Cl)cn1
32 | 53% |  | COc1ccc(NC(=O)c2ccc(O)nc2)cc1
33 | 35% |  | Cc1ccc(C(=O)Nc2ccc(Br)cc2)cn1
34 |  | 86 µM | COc1ccc(NC(=O)c2ccc(=O)[nH]c2)cc1
35 | 40% |  | O=C(Nc1ccc(Cl)cc1Cl)c1cnc(Cl)c(Cl)c1
36 | 45% |  | O=C(Nc1ccc(F)cc1)c1cnc(Cl)c(Cl)c1
37 | 19% |  | O=C(Nc1ccc(Cl)cc1Cl)c1cncc(Br)c1
38 | 18% |  | O=C(Nc1ccc(Br)cc1)c1ccc(Cl)nc1
39 | 64% |  | COc1ccc(NC(=O)c2cnc(O)c(Cl)c2)cc1
40 | 13% |  | O=C(Nc1ccc(Cl)cc1)c1cncc(Br)c1
41 | 64% |  | O=C(Nc1ccc(Br)cc1)c1ccc(O)nc1
42 | 45% |  | Cc1ccc(C(=O)Nc2ccc(Cl)cc2)cn1
43 | 60% | 28 µM | O=C(Nc1ccc(Cl)cc1)c1cccnc1O
44 | 40% |  | Cc1ccc(NC(=O)c2ccc(O)nc2)cc1
45 | 35% |  | O=C(Nc1cccc(Cl)c1)c1cccnc1O
46 | 64% |  | O=C(Nc1ccc(F)cc1)c1cccnc1O
47 | 58% | 74 µM | O=C(Nc1ccc(Br)cc1)c1cnc(O)c(Cl)c1
